# Columns and labels:
# nNOS = nNOS protein level in brain, capillary-phoresis; type: in vivo, mouse; settings: treated 3xTg-AD mice; control = 100%
# From the text: Capillary-phoresis immunoassay via ProteinSimple®: Quantification of all protein targets was achieved using Simple Western analysis in a Jess™ apparatus per the manufacturer's protocol (ProteinSimple, Bio-techne, Minneapolis, MN). Protein was extracted from dissected tissue in an extraction buffer consisting of T-PER® Tissue Protein Extraction Reagent (Cat. No. 78510, Thermo Fischer Scientific, Waltham, MA) and Halt™ Protease Inhibitor Cocktail (Cat. No. 87785, Thermo Fischer Scientific, Waltham, MA). Following homogenization and centrifugation (10,000×g, 5 min, 4° C.), protein concentration was determined in tissue protein supernatant samples using DC Protein Assay (Cat. No. 5000112, Bio-Rad Laboratories, Hercules, California) according to manufacturer instructions. […] Antibody diluent (ProteinSimple, Bio-techne, Minneapolis, MN) was used for all antibody dilutions as follows: PRMT4 (1:50, RRID: AB_2068436), PRMT6 (1:100, Cell Signaling Technology cat. 14641), eNOS (1:200, RRID: AB_10850618), nNOS (1:100, RRID: AB_2152488), iNOS (1:100, RRID: AB_10000625), DDAH2 (1:50, RRID: AB_2640442) Antibodies were detected using HRP-conjugated secondary anti-rabbit, and -mouse. Relative protein levels were calculated by measuring the area under the peak of a chemiluminescent chromatogram and normalized to total capillary chemiluminescence for a given sample. […]
# aged 3xTg-AD female mice [1] = experiment: Leukocyte rolling velocity, two-photon laser scanning microscopy; type: in vivo, mouse
# Description: FIGS. 17A-17D show leukocyte rolling velocity was reduced in aged 3xTg-AD female mice.
# Leukocytes velocity measurements were performed by linescans (512 lines/sec). *p<0.05 compared to aged 3xTg-AD male or C57 female evaluated by unpaired t-test. FIGS. 18A and 18B are capillary-based immunoassay and associated graphs showing PRMT4 inhibitor (TP-064) or AAV knockdown of PRMT4 reduced GFAP levels in aged 3xTg-AD female mice. Glial fibrillary acidic protein (GFAP, 55 kDa) was increased in aged 3xTg-AD female mice v. C57, which indicates neuroinflammation, but reversed with TP-064 (30 mg/kg, 7 days, IP) or PRMT4-AAV treatment in cortex, shown in FIG. 18A, and hippocampus, shown in FIG. 18B. Protein level was measured by capillary-based immunoassay and normalized to total protein. *p<0.05 as compared to C57, #p<0.05 v. 3xTg-AD evaluated by one-way ANOVA with Tukey's post-hoc analyses.
# aged 3xTg-AD female mice [2] = experiment: Novel Object Recognition; type: in vivo, mouse
# Description: FIGS. 20A and 20B are two graphs showing PRMT4 inhibitor (TP-064) or AAV knockdown of PRMT4 improved functional learning/memory in aged 3xTg-AD female mice. […] C57 but increased with administration of TP-064 (30 mg/kg, 7 days, IP). In FIG. 20B, in Novel Object Recognition, aged 3xTg-AD female mice had fewer number of entries in the novel zone v. C57. Treatment with TP-064 or brain-specific AAV knockdown of PRMT4 increased the number of entries. T-maze and novel object recognition test were utilized to analyze working/short-term and reference/long-term memory, respectively. * p<0.05 v. C57 via one-way ANOVA with Tukey's post-hoc analyses.
# [3] = Toxicity: blood counts, liver enzymes, kidney function; type: in vivo, mouse
# From the text: The inventors have on-going studies to screen for major organ toxicity. Plasma liver enzymes (ALT/AST) and kidney function were normal in TP-064-treated mice.
# [4] = test system: methylation of H3 (1-25) and MED12; settings: in cell; cited from earlier work
structure (smiles),measurement,setting,value
"CNCCN1CCC(c2cc(CN(C)C(=O)c3cccc(Oc4ccccc4)c3)ccn2)CC1 [TP-064, N-Methyl-N-((2-(1-(2-(methylamino)ethyl)piperidin-4-yl)pyridin-4-yl)methyl)-3-phenoxybenzamide]",nNOS level in cortical lysates,nNOS,40.3%±2.88
same,nNOS level in hippocampal lysates,nNOS,133%±8.15
same,leukocyte rolling velocity,aged 3xTg-AD female mice [1],increased
same,number of entries in the novel zone,aged 3xTg-AD female mice [2],increased
same,complete blood counts,[3]; mice treated 7 days,no abnormalities
same,Plasma liver enzymes (ALT/AST),[3]; treated mice,normal
same,kidney function,[3]; treated mice,normal
same,methylation of H3 (1-25) and MED12,[4],inhibits

# From patent US20240238268A1, “TREATMENTS AND METHODS FOR TREATING ALZHEIMER'S DISEASE” (Board of Supervisors of Louisiana State University and …, priority 2021, published 2024)
